From patent publication US6846625B1, “Method for identifying validated target and assay combination for drug development” (priority 1998, dated 2005)
Where two headings read alike, the source gives them in different places. Ends that are not written are not given here. Peptide text beside a SMILES is read from it.

Experiments:
E. coli pPROTet-GST = experiment: Lethal i.p. infection in mice, vector control strain; format: in vivo, CD-1 female mice; details: E. coli pPROTet-GST 10^8 cfu/mouse i.p., i.p. ×2
Procedure: Groups 5 through 8 served as vector control. The control inoculum was prepared from E. coli pPROTet-GST whose vector carries a gene encoding glutathione S-transferase, but no Pro-3 peptide. E. coli pPROTet-GST was cultured at 37° C. for 17 hr in Luria-Bertani broth containing spectinomycin and chloramphenicol, and then 100 μl of the culture were diluted to 1 ml with the medium for reading OD at 600 nm (0.2858, the medium as blank). Then 3×10^9 cfu (1.05 ml) from the overnight culture were diluted to 15 ml with 0.01 M phosphate buffered saline containing 8% hog gastic mucin. Each mouse of groups 5 through 8 was injected (i.p.) with E. coli pPROTet-GST inocula equivalent to 1×10^8 cfu/mouse (lethal dose).
(§1) One and four hours after the inoculation, groups 1 and 5 animals received a saline injection i.p. at 10 ml/kg; groups 2, 3 and 4 animals received i.p. injections of anhydrotetracycline at 2, 1 and 0.5 mg/kg (diluted in saline), respectively; groups 6, 7 and 8 received i.p. injections of anhydrotetracycline at 2, 1 and 0.5 mg/kg, respectively. The injection volume for all the animals was 10 ml/kg.

[1] = test system: E. coli JM109/pSC/pC^3844; experiment: Lethal i.p. infection in mice, induced in vivo expression of Pro-3; design: species or system CD-1 female mice; details: E. coli JM109/pSC/pC^3844 10^8 cfu/mouse i.p., i.p. ×2
Text: Intracellularly expressed Pro-3 was expected to bind to and inhibit a specific essential cellular target in a manner similar to that of an antimicrobial drug. Pro-3 was expected to cure the infection when its expression was induced in an animal model of bacterial infection. An established animal infection model was used to test this concept (C. O. Onyeji et al., Antimicrob. Agents Chemother. 38:1112-1117 (1994)).
Eight groups of CD-1 female mice (5 mice per group, Charles River Laboratories; Wilmington, Mass.) weighing 20-24 g were used in this experiment. The inoculum was prepared from E. coli JM109/pSC/pC^3844 which was cultured at 37° C. for 17 hr in Luria-Bertani broth containing spectinomycin and chloramphenicol, and then 100 μl of the culture was diluted to 1 ml with medium for reading OD at 600 nm (0.2403, the medium as blank). The turbidity of a 0.5 McFarland standard is equivalent to OD6000.1, or 10^8 cfu/ml. Then 3×10^9 cfu (colony-forming units) of E. coli JM109/pSC/pC^3844 (1.25 ml) from the overnight culture were diluted to 15 ml with 0.01 M phosphate buffered saline (Sigma P-0261) containing 8% hog gastric mucin (Sigma M-2378), 100 μg/ml spectinomycin and 68 μg/ml chloramphenicol. Each mouse of groups 1 through 4 was injected with 0.5 ml of the inoculum intraperitoneally (i.p.), equivalent to 1×10^8 cfu/mouse (lethal dose).
as §1

S. aureus MetRS = S. aureus MetRS (Staphylococcus aureus, UniProt Q5HII6); experiment: S. aureus MetRS aminoacylation (functional charging) assay; format: biochemical
Procedure: The activity of S. aureus MetRS was monitored by the aminoacylation reaction. The enzyme was diluted in 50 mM HEPES, pH 7.55, 5 mM DTT and 0.01% BSA. A typical 50 μL reaction mixture contained 30 mM HEPES, pH 7.5, 10 mM MgCl2, 30 mM KCl, 90 μM E. coli tRNA, 2 mM ATP and 5 μM [^3H]-methionine (10 Ci/mmol). The reaction was initiated by addition of enzyme at 25° C. At 4 different timepoints, 10 μL of the reaction was quenched into 150 μL cold 5% TCA on a Millipore filter plate. The filter plate is then washed three times with cold 5% TCA followed by water and then ethanol. The filter plate was dried before addition of 100 μL Packard Microscint-20 and counted on a Packard Top-Count microplate scintillation counter.
Inhibition studies were performed for the peptides against two of the substrates, ATP and methionine. This was done at varying concentrations of peptides by holding the concentration of one substrate at its K value (1.5 mM for ATP and 5 μM for methionine), while varying the other substrate concentration around its Km value. The initial velocity data obtained were then analyzed using GraFit.

Sa MetRS = Sa MetRS (Staphylococcus aureus, UniProt Q5HII6); experiment: Sa MetRS/Met1-F fluorescence polarization binding assay
Procedure: A non-radioactive, homogeneous, sensitive fluorescent polarization (FP) assay has been developed for Staphylococcus aureus MetRS (Sa MetRS) and Met1 peptide. FP is a ratiometric detection method which is capable of discriminating between free and bound states of fluorescently labeled tracer based on differences in the rotation rates of the two states. The Sa MetRS FP binding assay involves the incubation of fluorescently labeled Met1 peptide (Met1-F) with purified Sa MetRS. In the bound state, Met1-F is bound to Sa MetRS and an increase in polarization signal is detected using a FP detection system. In the free state, Met1-F is not bound to Sa MetRS and there is a decrease in polarization signal.
A 96-well plate (Costar cat# 3915) was blocked for 1 hour at room temperature with 150 μL/well 2 mg/ml bovine serum albumin (BSA) (FisherBiotech cat# BP1600-100) in 0.1 M NaHCO3. The plate was then washed manually three times with 150 μL/well of TBS (10 mM Tris-HCl pH 8.0, 150 mM NaCl). […] The plate was then read in an LJL Analyst (LJL Biosystems, Sunnyvale Calif.) in fluorescent polarization mode.
The FP assay for Sa MetRS inhibition has been evaluated to see if it is amenable for high throughput screening (HTS) for drug discovery. […] The IC50 for Met1 was tested on the plate in duplicate and the results were consistent with previously determined values. […]

[2] = test system: E. coli JM109/pSC/pC^3844; experiment: E. coli growth in culture upon regulated expression of Pro-3/GST; format: cell-based, Escherichia coli; details: anhydrotetracycline induction, compared with GST alone
Procedure: Overnight cultures of JM109/pSC cells harboring pC^3844 (JM109/pSC/pC^3844), or pPROTet-GST (same as pC^3844 without the Pro-3 peptide sequence) were diluted 100-fold in fresh LB medium containing 34 μg/mL chloramphenicol and 50 μg/mL spectinomycin. After 2 hours growth at 37° C., 100 μL aliquots of each of these bacterial cultures were transferred to wells of a 96-well microtiter plate, with or without 10 ng of anhydrotetracycline dissolved in 1 μL ethanol. The growth of bacterial cultures, which were constantly under agitation, was monitored with a plate reader (SpectraMAX-250, Molecular Devices).

E. coli ProRS = molecular target: T1, E. coli ProRS (Escherichia coli, UniProt P16659); experiment: E. coli ProRS tRNA charging (aminoacylation) inhibition; format: biochemical; details: read-out: K, (inhibition of E. coli ProRS aminoacylation activity)
T1 construct: made in house
T1 sequence (P16659 whole entry, looked up): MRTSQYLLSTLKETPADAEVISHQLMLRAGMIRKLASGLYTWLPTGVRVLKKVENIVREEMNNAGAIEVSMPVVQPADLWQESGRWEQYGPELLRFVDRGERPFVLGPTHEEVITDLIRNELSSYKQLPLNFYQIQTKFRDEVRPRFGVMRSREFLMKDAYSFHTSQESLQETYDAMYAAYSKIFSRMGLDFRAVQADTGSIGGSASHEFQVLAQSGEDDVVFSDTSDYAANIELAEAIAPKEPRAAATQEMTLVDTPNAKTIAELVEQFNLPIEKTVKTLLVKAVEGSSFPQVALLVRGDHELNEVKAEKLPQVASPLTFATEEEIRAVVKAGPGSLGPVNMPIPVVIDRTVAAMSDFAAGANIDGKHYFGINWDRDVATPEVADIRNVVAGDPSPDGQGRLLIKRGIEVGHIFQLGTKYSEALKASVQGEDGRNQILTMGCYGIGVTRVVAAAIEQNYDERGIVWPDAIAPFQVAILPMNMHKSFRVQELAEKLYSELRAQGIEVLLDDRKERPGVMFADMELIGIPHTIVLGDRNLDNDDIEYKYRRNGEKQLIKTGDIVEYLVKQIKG
Text: In order to produce pure protein for peptide selection, the E. coli ProRS gene (Genbank accession number: M97858) was PCR amplified and cloned into the pET-20b vector (Novagen) using standard molecular cloning protocols (J. Sambrook, et al., Molecular Cloning: A Laboratory Manual, 2nd edition, Cold Spring Harbor Laboratory Press, 1989). The overexpressed ProRS was purified sequentially on Q- and SP-Sepharose columns. […] Thirteen clones from phages that were identified as having a high affinity to ProRS were sequenced. These clones share 4 different sequences, 3 of which are closely related (Table l). See Example 4 of WO98/19162, published 7 May 1998.
The peptide having sequence number 3 was synthesized and tested for inhibition of tRNA charging activity of E. coli ProRS. […] This peptide is called Pro-3 (also, Pro3).
The expressed Pro-3/GST fusion protein was purified on a glutathione-agarose affinity column according to a procedure provided by Pharmacia (see, cg., procedures manual from Pharmacia P-L Biochemicals, Inc.: GST Gene Fusion System, regarding use of pGEX expression vectors and glutathione-S-transferase fusion proteins, 1993). The N-terminal sequence of the purified protein was determined by Edman cycles and confirmed to have the expected Pro-3 peptide sequence. […]

[3] = molecular target: T2, E. coli prolyl-tRNA synthetase (ProRS) (Escherichia coli), P16659; experiment: inhibition of tRNA charging activity, synthetic peptide
T2 chain: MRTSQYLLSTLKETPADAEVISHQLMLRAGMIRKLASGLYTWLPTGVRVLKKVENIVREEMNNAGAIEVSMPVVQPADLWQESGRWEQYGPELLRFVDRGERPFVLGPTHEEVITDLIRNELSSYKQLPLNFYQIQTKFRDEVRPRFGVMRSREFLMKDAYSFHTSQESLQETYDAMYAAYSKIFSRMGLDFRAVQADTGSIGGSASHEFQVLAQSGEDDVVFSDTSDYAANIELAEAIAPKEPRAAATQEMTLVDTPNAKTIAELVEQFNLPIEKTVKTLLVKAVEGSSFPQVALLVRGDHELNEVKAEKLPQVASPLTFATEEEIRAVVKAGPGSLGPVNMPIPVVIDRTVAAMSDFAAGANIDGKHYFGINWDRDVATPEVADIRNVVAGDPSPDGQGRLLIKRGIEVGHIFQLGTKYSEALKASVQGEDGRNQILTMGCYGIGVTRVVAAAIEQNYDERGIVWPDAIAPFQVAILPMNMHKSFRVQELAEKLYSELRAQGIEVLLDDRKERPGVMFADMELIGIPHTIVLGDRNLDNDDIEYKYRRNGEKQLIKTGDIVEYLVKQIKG

[4] = molecular target: E. coli prolyl-tRNA synthetase (ProRS) (Escherichia coli) (UniProt P16659); experiment: inhibition of ProRS enzyme activity, purified fusion protein
[5] = molecular target: E. coli prolyl-tRNA synthetase (ProRS) (Escherichia coli) (UniProt P16659); experiment: cell-based or functional assay

Chain of S. aureus MetRS (Q5HII6 whole entry): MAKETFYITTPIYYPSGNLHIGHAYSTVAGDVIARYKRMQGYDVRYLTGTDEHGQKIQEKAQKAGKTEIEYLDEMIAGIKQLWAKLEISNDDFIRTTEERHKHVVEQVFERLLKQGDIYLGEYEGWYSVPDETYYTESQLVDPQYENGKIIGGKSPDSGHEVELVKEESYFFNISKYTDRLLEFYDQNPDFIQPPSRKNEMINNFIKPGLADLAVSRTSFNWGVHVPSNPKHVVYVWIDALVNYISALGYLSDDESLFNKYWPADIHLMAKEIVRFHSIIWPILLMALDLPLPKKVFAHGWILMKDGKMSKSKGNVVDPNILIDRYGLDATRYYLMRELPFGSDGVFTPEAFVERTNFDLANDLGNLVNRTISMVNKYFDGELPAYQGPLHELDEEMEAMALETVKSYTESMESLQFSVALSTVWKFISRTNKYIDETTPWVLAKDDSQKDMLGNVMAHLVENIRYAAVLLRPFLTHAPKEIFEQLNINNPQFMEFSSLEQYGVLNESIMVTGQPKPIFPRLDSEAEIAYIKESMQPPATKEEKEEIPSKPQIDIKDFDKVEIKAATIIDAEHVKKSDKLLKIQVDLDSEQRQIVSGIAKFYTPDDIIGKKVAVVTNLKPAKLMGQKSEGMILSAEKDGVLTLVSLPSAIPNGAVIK
Chain of Sa MetRS (Q5HII6 whole entry): as above

In the case of Cc1c2c(c(O)c3c(O)cccc13)C(=O)[C@]1(O)C(=O)C(C(N)=O)=C(O)[C@@H](N(C)C)[C@@H]1C2 [Anhydrotetracycline, anhydrotetracycline], the “Survival (7 days)” value (E. coli pPROTet-GST; inducer 0.5 mg/kg) is reported as 0/5, the “Survival (7 days)” value (E. coli pPROTet-GST; inducer 1 mg/kg) is reported as 0/5 and the “Survival (7 days)” value (E. coli pPROTet-GST; inducer 2 mg/kg) is reported as 0/5. The “Survival (7 days)” value ([1]; inducer 0.5 mg/kg) was 5/5, the “Survival (7 days)” value ([1]; inducer 1 mg/kg) was 5/5 and the “Survival (7 days)” value ([1]; inducer 2 mg/kg) was 5/5.

For CSCC[C@H](NC(=O)[C@@H]1CCCN1C(=O)[C@H](Cc1c[nH]c2ccccc12)NC(=O)[C@H](CCCNC(=N)N)NC(=O)[C@H](CC(C)C)NC(=O)[C@H](CCC(N)=O)NC(=O)[C@H](Cc1c[nH]c2ccccc12)NC(=O)[C@@H](NC(=O)[C@H](CC(N)=O)NC(=O)[C@@H]1CCCN1C(=O)[C@@H](N)CC(=O)O)[C@@H](C)O)C(=O)N[C@@H](Cc1c[nH]cn1)C(=O)O [JT01, DPNTWQLRWPMH] (H-DPNTWQLRWPMH-OH; N-terminus and C-terminus assumed), the solubility was greater than 100 µM, the IC50 (S. aureus MetRS) was 0.2 µM and the Ki (S. aureus MetRS; Kl (ATP), ATP varied, methionine held at 5 μM) was 13 nM. The Ki (S. aureus MetRS; Kl (methionine), methionine varied, ATP held at 1.5 mM) was 138 nM and the IC50 (Sa MetRS) was 700 nM.

MWDLPYIWSRPV [JT02] gave a Ki (S. aureus MetRS; methionine varied, ATP held at 1.5 mM, read-out: Kl (methionine)) of 1700 nM.

In the case of “Pro-3/GST: Pro-3 peptide fused through a 4-amino acid linker to glutathione S-transferase (GST), expressed from pC^3844 (SREWHFWRDYNPTSREGGG; also: fused to GST through a linker, GST left off)”, the “E. coli growth (OD600) upon expression” value [2] is reported as “inhibits E. coli growth” and the Ki (E. coli ProRS) is reported as 180 nM.

Work on SREWHFWRDYNPTSR (modifications not checked) [Pro-3 peptide (…)] yielded a Ki [3] of 300 nM.

Molecule SREWHFWRDYNPTSREGGG [Pro-3/GST fusion protein] has a Ki [4] of 180 nM, a Charged tRNA (tRNA-Pro) in cells, +Inducer [5] of 23% and a Charged tRNA (tRNA-Pro) in cells, -Inducer [5] of 70%. For the same molecule, the Survival (7 days), mice infected with E. coli JM109/pSC/pC3844, anhydrotetracycline 0.5 mg/kg i.p. x2 [5] was 5 of 5 mice, the Survival (7 days), mice infected with E. coli JM109/pSC/pC3844, anhydrotetracycline 1 mg/kg i.p. x2 [5] was 5 of 5 mice and the Survival (7 days), mice infected with E. coli JM109/pSC/pC3844, anhydrotetracycline 2 mg/kg i.p. x2 [5] was 5 of 5 mice. The Survival (7 days), mice infected with E. coli JM109/pSC/pC3844, saline (no induction) [5] was 0 of 5 mice.
